Results taken from the supplement of paper PMC12420376.

Columns and labels:
OVCAR8 = assay: drug sensitivity score (DSS2) on cancer cell count; higher = more sensitive; extreme values may be limits of the assay; conditions: 72 h
In short: (§1)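 Ovarian cancer cells were grown alone or in 1:1 direct co-culture with lung or skin fibroblasts. They were plated onto 384-well plates pre-spotted acoustically with 528 approved and investigational compounds at 5 concentrations, then treated for 72 h. Cells were fixed, immunostained for CK8/18 with Hoechst, and imaged at 10× (4 fields) to count cancer cells. A drug sensitivity score (DSS2) was derived in Breeze from 4-parameter logistic fits, with screen quality checked by Z'.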

KURAMOCHI = assay: as above; conditions: 72 h
In short: as §1

[1] = co-cultured fibroblast: BJHTERT
[2] = co-cultured fibroblast: none (monoculture)

| Structure (SMILES) | drug sensitivity score (OVCAR8; [1]) | drug sensitivity score (OVCAR8; co-cultured fibroblast: WI38) | drug sensitivity score (OVCAR8; [2]) | drug sensitivity score (KURAMOCHI; [1]) | drug sensitivity score (KURAMOCHI; co-cultured fibroblast: WI38) | drug sensitivity score (KURAMOCHI; [2]) |
| --- | --- | --- | --- | --- | --- | --- |
| CN(CC(=O)N(Cc1ccc(C2CCCCC2)cc1)c1ccc(C(=O)O)cc1)S(=O)(=O)c1c(F)c(F)c(F)c(F)c1F [SH-4-54] | 0 DSS | 6 DSS | 7.3 DSS | 8.5 DSS | 7.8 DSS | 12 DSS |
| CCc1c2c(nc3ccc(O)cc13)-c1cc3c(c(=O)n1C2)COC(=O)[C@]3(O)CC [SN-38] | 40.9 DSS | 40.9 DSS | 45 DSS | 31.7 DSS | 39.5 DSS | 41 DSS |
| CC(C)(C)c1cnc(CSc2cnc(NC(=O)C3CCNCC3)s2)o1 [SNS-032] | 28.3 DSS | 21 DSS | 24.3 DSS | 21.1 DSS | 18.1 DSS | 25.5 DSS |
| Cc1cc2c(C(=O)NC[C@H](C)c3ccccc3)c(O)c(O)cc2c(O)c1-c1c(C)cc2c(C(=O)NC[C@H](C)c3ccccc3)c(O)c(O)cc2c1O [Sabutoclax] | 16.2 DSS | 14.2 DSS | 26.7 DSS | 3 DSS | 4.3 DSS | 23.7 DSS |
| CC[C@@H](C(=O)[C@@H](C)[C@@H](O)[C@H](C)[C@@H]1O[C@@H]([C@@H](CC)C(=O)O)CC[C@@H]1C)[C@H]1O[C@]2(C=C[C@@H](O)[C@]3(CC[C@@](C)([C@H]4CC[C@](O)(CC)[C@H](C)O4)O3)O2)[C@H](C)C[C@@H]1C [Salinomycin] | 22.1 DSS | 12.2 DSS | 21.1 DSS | 23.1 DSS | 23.6 DSS | 28.5 DSS |
| CC(C)n1nc(-c2ccc3oc(N)nc3c2)c2c(N)ncnc21 [Sapanisertib] | 11 DSS | 7.9 DSS | 11.8 DSS | 13.5 DSS | 12.4 DSS | 15.1 DSS |
| CNC(=O)CN1CCC(Oc2cc3c(Nc4cccc(Cl)c4F)ncnc3cc2OC)CC1 [Sapitinib] | 1.7 DSS | 1 DSS | 1.7 DSS | 2.3 DSS | 0 DSS | 0 DSS |
| CN1CCN(CCOc2cc(OC3CCOCC3)c3c(Nc4c(Cl)ccc5c4OCO5)ncnc3c2)CC1 [Saracatinib] | 9.2 DSS | 13.3 DSS | 14.6 DSS | 10.4 DSS | 9.6 DSS | 9.9 DSS |
| CC1=C2C[C@H]3[C@@H](CC[C@@H]4C[C@H](NS(C)(=O)=O)CC[C@@]43C)[C@@H]2CC[C@@]2(C1)O[C@@H]1C[C@H](C)CN[C@H]1[C@H]2C [Saridegib] | 0 DSS | 0 DSS | 0 DSS | 3.1 DSS | 3.9 DSS | 4.2 DSS |
| O=C(/C=C\n1cnc(-c2cc(C(F)(F)F)cc(C(F)(F)F)c2)n1)NNc1cnccn1 [Selinexor] | 22.4 DSS | 24.3 DSS | 27.1 DSS | 17.1 DSS | 21.8 DSS | 25.3 DSS |
| Cc1cc(F)c(C(=O)Nc2cccc(-c3nncn3C(C)C)n2)cc1-n1cnc(C2CC2)c1 [Selonsertib] | 0 DSS | 0 DSS | 0 DSS | 0 DSS | 0 DSS | 0 DSS |
| Cn1cnc2c(F)c(Nc3ccc(Br)cc3Cl)c(C(=O)NOCCO)cc21 [Selumetinib] | 6.1 DSS | 0 DSS | 7.8 DSS | 15.5 DSS | 6.4 DSS | 20.1 DSS |
| CN1CCN(C(=O)c2ccc3cc(CCNc4ncnc5ccc(C#N)cc45)ccc3c2)CC1 [Senexin B] | 1.1 DSS | 0 DSS | 0.1 DSS | 1.1 DSS | 1.6 DSS | 1 DSS |
| COCC[n+]1c2c(n(Cc3cnccn3)c1C)C(=O)c1ccccc1C2=O [Sepantronium bromide] | 37.1 DSS | 35.5 DSS | 29.9 DSS | 40.7 DSS | 30 DSS | 30.5 DSS |
| Nc1nc2cc(-c3ccc4ncc(C(=O)N5CCOCC5)n4c3)ccc2o1 [Serabelisib] | 0.8 DSS | 0 DSS | 0 DSS | 3.3 DSS | 0.4 DSS | 3.1 DSS |
| O=C(O)c1ccc2c(c1)nc(Nc1cccc(Cl)c1)c1ccncc12 [Silmitasertib] | 2 DSS | 0 DSS | 3 DSS | 4.1 DSS | 3.4 DSS | 0.8 DSS |
| CCC(C)(C)C(=O)O[C@H]1C[C@@H](C)C=C2C=C[C@H](C)[C@H](CC[C@@H]3C[C@@H](O)CC(=O)O3)[C@H]21 [Simvastatin] | 1.8 DSS | 14.6 DSS | 3.6 DSS | 0.4 DSS | 0 DSS | 8.6 DSS |
| CO[C@H]1C[C@@H]2CC[C@@H](C)[C@@](O)(O2)C(=O)C(=O)N2CCCC[C@H]2C(=O)O[C@H]([C@H](C)C[C@@H]2CC[C@@H](O)[C@H](OC)C2)CC(=O)[C@H](C)/C=C(\C)[C@@H](O)[C@@H](OC)C(=O)[C@H](C)C[C@H](C)/C=C/C=C/C=C/1C [Sirolimus] | 4.5 DSS | 0 DSS | 9.2 DSS | 4.2 DSS | 5 DSS | 7.1 DSS |
| COCCNCc1ccc(-c2cc3nccc(Oc4ccc(NC(=O)C5(C(=O)Nc6ccc(F)cc6)CC5)cc4F)c3s2)nc1 [Sitravatinib] | 0 DSS | 1.6 DSS | 1.8 DSS | 3.1 DSS | 5.8 DSS | 0 DSS |
| Cc1c(C(=O)Nc2ccc(N3C[C@@H](C)O[C@@H](C)C3)nc2)cccc1-c1ccc(OC(F)(F)F)cc1 [Sonidegib] | 0.6 DSS | 0 DSS | 0.6 DSS | 0 DSS | 0 DSS | 0 DSS |
| C=CCN(/C=C1/C(=O)O[C@H](COC)[C@@]2(C)C1=C(O)C(=O)C1=C2[C@H](OC(C)=O)C[C@]2(C)C(=O)CC[C@@H]12)CC=C [Sonolisib] | 0 DSS | 0 DSS | 0 DSS | 0 DSS | 1.5 DSS | 0 DSS |
| CNC(=O)c1cc(Oc2ccc(NC(=O)Nc3ccc(Cl)c(C(F)(F)F)c3)cc2)ccn1 [Sorafenib] | 0 DSS | 0 DSS | 0 DSS | 0 DSS | 0 DSS | 0 DSS |
| CN1CCN(c2nc(C3=C(c4c[nH]c5ccccc45)C(=O)NC3=O)c3ccccc3n2)CC1 [Sotrastaurin] | 0.2 DSS | 2.6 DSS | 0 DSS | 1.1 DSS | 0.6 DSS | 12 DSS |
| C=CC(=O)Nc1cccc(Nc2nc(Nc3ccc(OCCOC)cc3)ncc2F)c1 [Spebrutinib] | 0 DSS | 0 DSS | 0 DSS | 0 DSS | 0 DSS | 0 DSS |

| Structure (SMILES) | drug sensitivity score (OVCAR8; [1]) | drug sensitivity score (OVCAR8; co-cultured fibroblast: WI38) | drug sensitivity score (OVCAR8; [2]) | drug sensitivity score (KURAMOCHI; [1]) | drug sensitivity score (KURAMOCHI; co-cultured fibroblast: WI38) | drug sensitivity score (KURAMOCHI; [2]) |
| --- | --- | --- | --- | --- | --- | --- |
| CC(C)n1cnc2c(NCCc3ccc(O)cc3)nc(-c3csc4ccccc34)nc21 [StemRegenin 1] | 2.8 DSS | 0 DSS | 1 DSS | 4.3 DSS | 2.8 DSS | 1.7 DSS |
| CCN(CC)CCNC(=O)c1c(C)[nH]c(/C=C2\C(=O)Nc3ccc(F)cc32)c1C [Sunitinib] | 0.7 DSS | 0 DSS | 0 DSS | 0 DSS | 0 DSS | 3.2 DSS |
| CC(C)(O)CC(=O)NCCn1ccc2ncnc(Nc3ccc(Oc4cccc(C(F)(F)F)c4)c(Cl)c3)c21 [TAK-285] | 0.2 DSS | 0 DSS | 1.2 DSS | 5.2 DSS | 1.6 DSS | 0.6 DSS |
| CCS(=O)(=O)c1cccc(-c2cc(C(=O)NC3CCN(C)CC3)c(C)c3[nH]c4ncc(C)cc4c23)c1 [TAK-901] | 9.4 DSS | 8.3 DSS | 7.1 DSS | 11.8 DSS | 15 DSS | 13.7 DSS |
| Cc1cccc(-c2[nH]c(CNc3ccccc3F)nc2-c2ccc3ncnn3c2)n1 [TEW-7197] | 11.2 DSS | 16.2 DSS | 4.2 DSS | 0 DSS | 0 DSS | 0 DSS |
| CC(C)Oc1ccc(-c2nn([C@@H](C)c3oc4ccc(F)cc4c(=O)c3-c3cccc(F)c3)c3ncnc(N)c23)cc1F [TGR-1202] | 0 DSS | 0 DSS | 0 DSS | 0 DSS | 0 DSS | 0 DSS |
| Cc1cc(C(C)Nc2ccccc2)c2nc(N3CCOCC3)cc(=O)n2c1 (stereo not drawn) [TGX-221] | 8.5 DSS | 7.2 DSS | 0 DSS | 7.7 DSS | 0 DSS | 4 DSS |
| Nc1nc(NC2CC2)cc(-c2cccc(Cl)c2Cl)n1 [TH588] | 7.4 DSS | 4.5 DSS | 3.3 DSS | 6 DSS | 6.7 DSS | 6.5 DSS |
| Clc1ccccc1C(c1ccccc1)(c1ccccc1)n1cccn1 [TRAM-34] | 0 DSS | 0 DSS | 0 DSS | 0 DSS | 0 DSS | 0 DSS |
| CC(=O)Nc1ccc(C(=O)Nc2ccccc2N)cc1 [Tacedinaline] | 0 DSS | 0 DSS | 1.8 DSS | 0 DSS | 2.6 DSS | 3.7 DSS |
| C=CC[C@@H]1/C=C(\C)C[C@H](C)C[C@H](OC)[C@H]2O[C@@](O)(C(=O)C(=O)N3CCCC[C@H]3C(=O)O[C@H](/C(C)=C/[C@@H]3CC[C@@H](O)[C@H](OC)C3)[C@H](C)[C@@H](O)CC1=O)[C@H](C)C[C@@H]2OC [Tacrolimus] | 0.8 DSS | 0 DSS | 3.1 DSS | 1 DSS | 1 DSS | 18.5 DSS |
| CN(C(=O)c1ccc(F)cc1C(F)(F)F)C1CCN(c2nnc(-c3ccnn3C)c3ccccc23)CC1 [Taladegib] | 0 DSS | 0 DSS | 0 DSS | 0 DSS | 0 DSS | 0 DSS |
| Cn1ncnc1[C@H]1c2n[nH]c(=O)c3cc(F)cc(c23)N[C@@H]1c1ccc(F)cc1 [Talazoparib] | 19.5 DSS | 15.3 DSS | 15.8 DSS | 10.5 DSS | 15 DSS | 16.3 DSS |
| C[C@@H]1CN(Cc2ccc(F)cc2)[C@@H](C)CN1C(=O)c1cc2c(C(=O)C(=O)N(C)C)cn(C)c2cc1Cl [Talmapimod] | 2.8 DSS | 0 DSS | 1.4 DSS | 1.2 DSS | 0 DSS | 0 DSS |
| COc1cc(Nc2ncc(F)c(Nc3ccc4c(n3)NC(=O)C(C)(C)O4)n2)cc(OC)c1OC [Tamatinib] | 0 DSS | 4.3 DSS | 0.9 DSS | 0.6 DSS | 3.7 DSS | 6 DSS |
| CC/C(=C(\c1ccccc1)c1ccc(OCCN(C)C)cc1)c1ccccc1 [Tamoxifen] | 3.3 DSS | 0 DSS | 1 DSS | 1.3 DSS | 1.3 DSS | 0 DSS |
| COc1cc2c(N3CCN(C(=O)Nc4ccc(OC(C)C)cc4)CC3)ncnc2cc1OCCCN1CCCCC1 [Tandutinib] | 0 DSS | 0 DSS | 0 DSS | 0 DSS | 0 DSS | 0 DSS |
| O[C@H]1CC[C@H](Nc2ncc3nc(Nc4c(F)cc(F)cc4F)n([C@H]4CCOC4)c3n2)CC1 [Tanzisertib] | 1.4 DSS | 0 DSS | 1 DSS | 2 DSS | 0 DSS | 0.2 DSS |
| C[C@@H](C(=O)O)c1ccc(-c2ccccc2)c(F)c1 [Tarenflurbil] | 0.7 DSS | 0 DSS | 0 DSS | 0 DSS | 0 DSS | 0 DSS |
| Cc1nc(-c2cn3c(n2)-c2ccc(-c4cnn(C(C)(C)C(N)=O)c4)cc2OCC3)n(C(C)C)n1 [Taselisib] | 3.1 DSS | 0 DSS | 3.3 DSS | 9.2 DSS | 4.7 DSS | 10.7 DSS |
| COc1cccc2c1c(O)c(C(=O)N(C)c1ccc(C(F)(F)F)cc1)c(=O)n2C [Tasquinimod] | 0 DSS | 0 DSS | 0 DSS | 0 DSS | 0 DSS | 0 DSS |
| CCN(c1cc(-c2ccc(CN3CCOCC3)cc2)cc(C(=O)NCc2c(C)cc(C)[nH]c2=O)c1C)C1CCOCC1 [Tazemetostat] | 0 DSS | 0 DSS | 0 DSS | 0 DSS | 0 DSS | 0 DSS |
| CNC(=O)c1cc(COc2nnc(Nc3ccc(Cl)cc3)c3ccoc23)ccn1 [Telatinib] | 1.1 DSS | 0 DSS | 0 DSS | 0 DSS | 0.4 DSS | 16.6 DSS |
| Cn1nnc2c(C(N)=O)ncn2c1=O [Temozolomide] | 0 DSS | 0 DSS | 9.8 DSS | 0 DSS | 2.2 DSS | 9.1 DSS |
